27 compounds from patent publication US20260217717A1, “CDK2 INHIBITORS” (BLUEPRINT MEDICINES CORPORATION, priority 2023, published 2026) can be followed below.

The target of assay [1] is T1, CDK2/Cyclin E (Homo sapiens, UniProt P24941).
T1 construct: purchased Eurofins 14-475
Briefly: CDK2/Cyclin E enzymatic phosphorylation assay (Caliper mobility shift). Further: 1.0 mM ATP or ATP Km. The assay is classed as biochemical. As to conditions: read-out: Enzyme CDK2/cyclin E IC50. On the procedure: (§1) Reactions proceeded until between 10% to 20% total peptides were phosphorylated at room temperature (25° C.) and were terminated with 35 mM 2,2′,2″,2′″-(ethane-1,2-diyldinitrilo)tetraacetic acid (EDTA). Product was detected using the Caliper mobility shift detection method where the phosphorylated peptide (product) and substrate were electrophoretically separated and measured. Percent activity was plotted against log concentration of compound and points to generate an apparent IC50.

Assay [2] deals with T2, CDK1/Cyclin B1 (Homo sapiens, UniProt P06493).
T2 construct: GST; purchased BPS 40454
Briefly: CDK1/Cyclin B1 enzymatic phosphorylation assay (Caliper mobility shift). It is filed as biochemical. Particulars: read-out: Enzyme CDK1/cyclin B1 IC50. The method, then: as §1

T2 sequence (P06493 whole entry): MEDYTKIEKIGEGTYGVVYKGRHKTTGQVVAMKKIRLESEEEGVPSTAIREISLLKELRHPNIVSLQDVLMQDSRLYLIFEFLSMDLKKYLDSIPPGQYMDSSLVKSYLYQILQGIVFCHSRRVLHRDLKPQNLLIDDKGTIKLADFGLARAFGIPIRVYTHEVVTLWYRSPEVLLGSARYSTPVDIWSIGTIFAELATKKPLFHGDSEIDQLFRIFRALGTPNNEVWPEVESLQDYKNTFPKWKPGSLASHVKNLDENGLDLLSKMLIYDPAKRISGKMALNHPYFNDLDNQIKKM
T2 sequence (P14635 whole entry partner): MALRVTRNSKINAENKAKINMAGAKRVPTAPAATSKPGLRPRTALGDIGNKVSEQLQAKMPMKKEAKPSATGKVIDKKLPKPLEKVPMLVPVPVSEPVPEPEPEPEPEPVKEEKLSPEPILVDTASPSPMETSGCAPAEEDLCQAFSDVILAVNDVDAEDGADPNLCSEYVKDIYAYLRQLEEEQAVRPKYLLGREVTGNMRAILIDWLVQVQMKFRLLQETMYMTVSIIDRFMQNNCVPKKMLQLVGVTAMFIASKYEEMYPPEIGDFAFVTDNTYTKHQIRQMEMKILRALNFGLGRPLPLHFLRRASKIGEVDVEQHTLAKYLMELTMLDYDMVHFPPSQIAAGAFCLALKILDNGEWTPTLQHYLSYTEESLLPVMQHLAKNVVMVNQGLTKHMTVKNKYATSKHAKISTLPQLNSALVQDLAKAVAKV

As for `CC(C)c1cc(Nc2cnc3cnn(C[C@H]4CCCOC4)c3n2)n[nH]1` (single isomer, unassigned) [Example 9, (R)-N-(5-isopropyl-1H-pyrazol-3-yl)-1-((tetrahydro-2H-pyran-3-yl)methyl)-1H-pyrazolo[3,4-b] pyrazin-6-amine or (S)-N-(5-isopropyl-1H-pyrazol-3-yl)-1-((tetrahydro-2H-pyran-3-yl)methyl)-1H-pyrazolo[3,4-b]pyrazin-6-amine], the IC50 worked out at 0.0006 µM in assay [1] and 0.144 µM in assay [2].
The corresponding values for `CC(C)c1cc(Nc2cnc3cnn(C[C@@H]4CCCOC4)c3n2)n[nH]1` (single isomer, unassigned) [Example 10, (S)-N-(5-isopropyl-1H-pyrazol-3-yl)-1-((tetrahydro-2H-pyran-3-yl)methyl)-1H-pyrazolo[3,4-b]pyrazin-6-amine or (R)-N-(5-isopropyl-1H-pyrazol-3-yl)-1-((tetrahydro-2H-pyran-3-yl)methyl)-1H-pyrazolo[3,4-b]pyrazin-6-amine] are 0.0005 µM and 0.147 µM.
For the compound `CC(C)c1cc(Nc2cnc3cnn(C[C@H]4CCOC4)c3n2)n[nH]1` (single isomer, unassigned) [Example 11, (R)-N-(5-isopropyl-1H-pyrazol-3-yl)-1-((tetrahydrofuran-3-yl)methyl)-1H-pyrazolo[3,4-b]pyrazin-6-amine or (S)-N-(5-isopropyl-1H-pyrazol-3-yl)-1-((tetrahydrofuran-3-yl)methyl)-1H-pyrazolo[3,4-b]pyrazin-6-amine], the IC50 was 0.0038 µM in assay [1] and 1.27 µM in assay [2].
The corresponding values for `CC(C)c1cc(Nc2cnc3cnn(C[C@@H]4CCOC4)c3n2)n[nH]1` (single isomer, unassigned) [Example 12, (S)-N-(5-isopropyl-1H-pyrazol-3-yl)-1-((tetrahydrofuran-3-yl)methyl)-1H-pyrazolo[3,4-b]pyrazin-6-amine or (R)-N-(5-isopropyl-1H-pyrazol-3-yl)-1-((tetrahydrofuran-3-yl)methyl)-1H-pyrazolo[3,4-b]pyrazin-6-amine] are 0.0005 µM and 0.119 µM.
Turning to `CC[C@@H]([C@H](C)O)n1ncc2ncc(Nc3cc(C(C)C)[nH]n3)nc21` (single isomer, unassigned) [Example 13, (2S,3S)-3-(6-((5-isopropyl-1H-pyrazol-3-yl)amino)-1H-pyrazolo[3,4-b]pyrazin-1-yl)pentan-2-ol or (2S,3R)-3-(6-((5-isopropyl-1H-pyrazol-3-yl)amino)-1H-pyrazolo[3,4-b]pyrazin-1-yl)pentan-2-ol], the IC50 in assay [1] turned out to be 0.0023 µM; in assay [2], 0.907 µM.
The corresponding values for `CC[C@H]([C@H](C)O)n1ncc2ncc(Nc3cc(C(C)C)[nH]n3)nc21` (single isomer, unassigned) [Example 14, (2S,3R)-3-(6-((5-isopropyl-1H-pyrazol-3-yl)amino)-1H-pyrazolo[3,4-b]pyrazin-1-yl)pentan-2-ol or (2S,3S)-3-(6-((5-isopropyl-1H-pyrazol-3-yl)amino)-1H-pyrazolo[3,4-b]pyrazin-1-yl)pentan-2-ol] are 0.0239 µM and 3.13 µM.
The like results for `Cc1cc(Nc2cnc3cnn([C@@H](C)c4cc(F)ccn4)c3n2)n[nH]1` (single isomer, unassigned) [Example 19, (S)-1-(1-(4-fluoropyridin-2-yl)ethyl)-N-(5-methyl-1H-pyrazol-3-yl)-1H-pyrazolo[3,4-b]pyrazin-6-amine or (R)-1-(1-(4-fluoropyridin-2-yl)ethyl)-N-(5-methyl-1H-pyrazol-3-yl)-1H-pyrazolo[3,4-b]pyrazin-6-amine] were, in that order, 0.0045 µM and 1.38 µM.
Regarding `C[C@H](c1cc(Nc2cnc3cnn(CC4CCOCC4)c3n2)n[nH]1)C(F)F` (single isomer, unassigned) [Example 20], the IC50 in assay [1] came out at 0.0074 µM; in assay [2] it was 1.01 µM.
For `C[C@@H](c1cc(Nc2cnc3cnn(CC4CCOCC4)c3n2)n[nH]1)C(F)F` (single isomer, unassigned) [Example 21], the IC50 in assay [1] was determined as 0.0054 µM; in assay [2], 0.595 µM.
The like results for `CC(C)c1cc(Nc2cnc3cnn(CCCO)c3n2)n[nH]1` [Example 1, 3-(6-((5-isopropyl-1H-pyrazol-3-yl)amino)-1H-pyrazolo[3,4-b]pyrazin-1-yl)propan-1-ol] were, in that order, 0.0215 µM and 2.99 µM.
The corresponding values for `C[C@@H](c1cccnc1)n1ncc2ncc(Nc3cc(C(F)F)[nH]n3)nc21` [Example 2, (S)-N-(5-(difluoromethyl)-1H-pyrazol-3-yl)-1-(1-(pyridin-3-yl)ethyl)-1H-pyrazolo[3,4-b]pyrazin-6-amine] are 0.0228 µM and 6.03 µM.
The corresponding values for `Cc1cc(Nc2cnc3cnn(Cc4cccnc4)c3n2)n[nH]1` [Example 3, N-(5-methyl-1H-pyrazol-3-yl)-1-(pyridin-3-ylmethyl)-1H-pyrazolo[3,4-b]pyrazin-6-amine] are 0.0781 µM and 9.14 µM.
Take `Cc1nn(Cc2cccnc2)c2nc(Nc3cc(C4COC4)[nH]n3)cnc12` [Example 4, 3-methyl-N-(5-(oxetan-3-yl)-1H-pyrazol-3-yl)-1-(pyridin-3-ylmethyl)-1H-pyrazolo[3,4-b]pyrazin-6-amine]: the IC50 amounted to 0.0363 µM in assay [1] and 5 µM in assay [2].
The corresponding values for `Cc1cc(Nc2cnc3cnn(C[C@H]4CCCOC4)c3n2)n[nH]1` [Example 5, (R)-N-(5-methyl-1H-pyrazol-3-yl)-1-((tetrahydro-2H-pyran-3-yl)methyl)-1H-pyrazolo[3,4-b]pyrazin-6-amine] are 0.0576 µM and 5.23 µM.
The like results for `Cc1nn(CC2CCOCC2)c2nc(Nc3cc(C(C)C)[nH]n3)cnc12` [Example 6, N-(5-isopropyl-1H-pyrazol-3-yl)-3-methyl-1-((tetrahydro-2H-pyran-4-yl)methyl)-1H-pyrazolo[3,4-b]pyrazin-6-amine] were, in that order, 0.0037 µM and 0.388 µM.
The corresponding values for `Cc1nn(Cc2cccnc2)c2nc(Nc3cc(C(C)C)[nH]n3)cnc12` [Example 7, N-(5-isopropyl-1H-pyrazol-3-yl)-3-methyl-1-(pyridin-3-ylmethyl)-1H-pyrazolo[3,4-b]pyrazin-6-amine] are 0.0013 µM and 0.234 µM.
Take `Cc1nn(CC2CCOCC2)c2nc(Nc3cc(C4COC4)[nH]n3)cnc12` [Example 8, 3-methyl-N-(5-(oxetan-3-yl)-1H-pyrazol-3-yl)-1-((tetrahydro-2H-pyran-4-yl)methyl)-1H-pyrazolo[3,4-b]pyrazin-6-amine]: the results for the IC50 in assay [1] and in assay [2] were 0.0371 µM and 2.58 µM, respectively.
The like results for `Cc1cc(Nc2cnc3cnn([C@@H](C)c4cccnc4)c3n2)n[nH]1` [Example 15, (S)-N-(5-methyl-1H-pyrazol-3-yl)-1-(1-(pyridin-3-yl)ethyl)-1H-pyrazolo[3,4-b]pyrazin-6-amine] were, in that order, 0.0292 µM and 5.66 µM.
The like results for `c1nc2cnn(C[C@H]3[C@@H]4COC[C@@H]43)c2nc1Nc1cc(C2COC2)[nH]n1` [Example 16, 1-(((1R,5S,6s)-3-oxabicyclo[3.1.0]hexan-6-yl)methyl)-N-(5-(oxetan-3-yl)-1H-pyrazol-3-yl)-1H-pyrazolo[3,4-b]pyrazin-6-amine] were, in that order, 0.0085 µM and 1.02 µM.
Take `Cc1nc2cnn(CC3CCOCC3)c2nc1Nc1cc(C(C)C)[nH]n1` [Example 17, N-(5-isopropyl-1H-pyrazol-3-yl)-5-methyl-1-((tetrahydro-2H-pyran-4-yl)methyl)-1H-pyrazolo[3,4-b]pyrazin-6-amine]: the figures for the IC50 in assay [1] and in assay [2] were 0.0148 µM and 1.65 µM, respectively.
`Cc1nc2cnn(Cc3cccnc3)c2nc1Nc1cc(C(C)C)[nH]n1` [Example 18, N-(5-isopropyl-1H-pyrazol-3-yl)-5-methyl-1-(pyridin-3-ylmethyl)-1H-pyrazolo[3,4-b]pyrazin-6-amine]: the values for the IC50 in assay [1] and in assay [2] were 0.0151 µM and 3.23 µM, respectively.
Consider `C[C@@H](c1cccnc1F)n1ncc2ncc(Nc3cc(C#N)[nH]n3)nc21` [Example 22, (S)-3-((1-(1-(2-fluoropyridin-3-yl)ethyl)-1H-pyrazolo[3,4-b]pyrazin-6-yl)amino)-1H-pyrazole-5-carbonitrile], for which the IC50 in assay [1] is 0.0088 µM; in assay [2], 3.46 µM.
The corresponding values for `COc1ncccc1[C@H](C)n1ncc2ncc(Nc3cc(C)[nH]n3)nc21` [Example 23, (S)-1-(1-(2-methoxypyridin-3-yl)ethyl)-N-(5-methyl-1H-pyrazol-3-yl)-1H-pyrazolo[3,4-b]pyrazin-6-amine] are 0.0141 µM and 1.54 µM.
For the compound `C[C@@H](c1cccnc1Cl)n1ncc2ncc(Nc3cc(C#N)[nH]n3)nc21` [Example 24, (S)-3-((1-(1-(2-chloropyridin-3-yl)ethyl)-1H-pyrazolo[3,4-b]pyrazin-6-yl)amino)-1H-pyrazole-5-carbonitrile], the figures for the IC50 in assay [1] and in assay [2] were 0.0203 µM and 3.33 µM, respectively.
In the case of `C[C@@H](c1ccccn1)n1ncc2ncc(Nc3cc(C#N)[nH]n3)nc21` [Example 25, (S)-3-((1-(1-(pyridin-2-yl)ethyl)-1H-pyrazolo[3,4-b]pyrazin-6-yl)amino)-1H-pyrazole-5-carbonitrile], the figures for the IC50 in assay [1] and in assay [2] were 0.0761 µM and 10 µM, respectively.
The corresponding values for `Cc1cc(Nc2cnc3cnn([C@@H](C)c4cccnc4Cl)c3n2)n[nH]1` [Example 26, (S)-1-(1-(2-chloropyridin-3-yl)ethyl)-N-(5-methyl-1H-pyrazol-3-yl)-1H-pyrazolo[3,4-b]pyrazin-6-amine] are 0.0042 µM and 1.06 µM.
The corresponding values for `Cc1cc(Nc2cnc3c(Cl)nn([C@@H](C)c4cccnc4)c3n2)n[nH]1` [Example 27, (S)-3-chloro-N-(5-methyl-1H-pyrazol-3-yl)-1-(1-(pyridin-3-yl)ethyl)-1H-pyrazolo[3,4-b]pyrazin-6-amine] are 0.0961 µM and 10 µM.
